Assay results: patent US12421251B2, “Cystic fibrosis transmembrane conductance regulator modulating agents” (VERTEX PHARMACEUTICALS INCORPORATED, priority 2019, dated 2025)
pEC50: −log10 of the molar value.

Biological target: CFTR (Homo sapiens, UniProt P13569)
Assay: Membrane potential dye assay (FLIPR Tetra) of CFTR-mediated chloride transport in enteroid cells
Format: cell-based
Conditions: human intestinal epithelial enteroid cells, 18-24 h incubation with test compound, acute 10 μM forskolin and 300 nM Compound III; for pEC50: CFTR-mediated chloride transport; for Max. Activity: chloride transport as % of triple combination positive control (% Activity)
Method: Base medium (ADF+++) consisted of Advanced DMEM/Ham's F12, 2 mM Glutamax, 10 mM HEPES, 1 μg/ml penicillin/streptomycin.
Intestinal enteroid maintenance medium (IEMM) consisted of ADF+++, 1×B27 supplement, 1×N2 supplement, 1.25 mM N-acetyl cysteine, 10 mM Nicotinamide, 50 ng/mL hEGF, 10 nM Gastrin, 1 μg/mL hR-spondin-1, 100 ng/mL hNoggin, TGF-b type 1 inhibitor A-83-01, 100 μg/mL Primocin, 10 μM P38 MAPK inhibitor SB202190.
Bath 1 Buffer consisted of 1 mM MgCl2, 160 mM NaCl, 4.5 mM KCl, 10 mM HEPES, 10 mM Glucose, 2 mM CaCl2.
Chloride Free Buffer consisted of 1 mM Magnesium Gluconate, 2 mM Calcium Gluconate, 4.5 mM Potassium Gluconate, 160 mM Sodium Gluconate, 10 mM HEPES, 10 mM Glucose.
Bath1 Dye Solution consisted of Bath 1 Buffer, 0.04% Pluronic F127, 20 μM Methyl Oxonol, 30 μM CaCCinh-A01, 30 μM Chicago Sky Blue.
Chloride Free Dye Solution consisted of Chloride Free Buffer, 0.04% Pluronic F127, 20 μM Methyl Oxonol, 30 μM CaCCinh-A01, 30 μM Chicago Sky Blue.
Chloride Free Dye Stimulation Solution consisted of Chloride Free Dye Solution, 10 μM forskolin, 100 μM IBMX, and 300 nM Compound III.
Human intestinal epithelial enteroid cells were obtained from the Hubrecht Institute for Developmental Biology and Stem Cell Research, Utrecht, The Netherlands and expanded in T-Flasks as previously described (Dekkers J F, Wiegerinck C L, de Jonge H R, Bronsveld I, Janssens H M, de Winter-de Groot K M, Brandsma A M, de Jong N W M, Bijvelds M J C, Scholte B J, Nieuwenhuis E E S, van den Brink S, Clevers H, van der Ent C K, Middendorp S and M Beekman J M. A functional CFTR assay using primary cystic fibrosis intestinal organoids. Nat. Med. 2013 July; 19(7):939-45.
Enteroid Cell Harvesting and Seeding
Cells were recovered in cell recovery solution, collected by centrifugation at 650 rpm for 5 min at 4° C., resuspended in TryPLE and incubated for 5 min at 37° C. Cells were then collected by centrifugation at 650 rpm for 5 min at 4° C. and resuspended in IEMM containing 10 μM ROCK inhibitor (RI). The cell suspension was passed through a 40 μm cell strainer and resuspended at 1×10^6 cells/mL in IEMM containing 10 μM RI. Cells were seeded at 5000 cells/well into multi-well plates and incubated for overnight at 37° C., 95% humidity and 5% CO2 prior to assay.
Membrane Potential Dye Assay
Enteroid cells were incubated with test compound in IEMM for 18-24 h at 37° C., 95% humidity and 5% CO2. Following compound incubations, a membrane potential dye assay was employed using a FLIPR Tetra to directly measure the potency and efficacy of the test compound on CFTR-mediated chloride transport following acute addition of 10 μM forskolin and 300 nM N-[2,4-bis(1,1-dimethylethyl)-5-hydroxyphenyl]-1,4-dihydro-4-oxoquinoline-3-carboxamide. Briefly, cells were washed 5 times in Bath 1 Buffer. Bath 1 Dye Solution was added and the cells were incubated for 25 min at ambient temperature. Following dye incubation, cells were washed 3 times in Chloride Free Dye Solution. Chloride transport was initiated by addition of Chloride Free Dye Stimulation Solution and the fluorescence signal was read for 15 min. The CFTR-mediated chloride transport for each condition was determined from the AUC of the fluorescence response to acute forskolin and 300 nM N-[2,4-bis(1,1-dimethylethyl)-5-hydroxyphenyl]-1,4-dihydro-4-oxoquinoline-3-carboxamide stimulation. Chloride transport was then expressed as a percentage of the chloride transport following treatment with 1 μM (14S)-8-[3-(2-{Dispiro[2.0.2.1]heptan-7-yl}ethoxy)-1H-pyrazol-1-yl]-12,12-dimethyl-2λ^6-thia-3,9,11,18,23-pentaazatetracyclo[17.3.1.111,14.05,10]-tetracosa-1(22),5,7,9,19(23),20-hexaene-2,2,4-trione, 3 μM ((R)-1-(2,2-difluorobenzo[d][1,3]dioxol-5-yl)-N-(1-(2,3-dihydroxypropyl)-6-fluoro-2-(1-hydroxy-2-methylpropan-2-yl)-1H-indol-5-yl)cyclopropanecarboxamide and 300 nM acute N-[2,4-bis(1,1-dimethylethyl)-5-hydroxyphenyl]-1,4-dihydro-4-oxoquinoline-3-carboxamide triple combination positive control (% Activity). […]

CFTR, sequence (P13569 with tags, fused parts or gaps DEL508-508): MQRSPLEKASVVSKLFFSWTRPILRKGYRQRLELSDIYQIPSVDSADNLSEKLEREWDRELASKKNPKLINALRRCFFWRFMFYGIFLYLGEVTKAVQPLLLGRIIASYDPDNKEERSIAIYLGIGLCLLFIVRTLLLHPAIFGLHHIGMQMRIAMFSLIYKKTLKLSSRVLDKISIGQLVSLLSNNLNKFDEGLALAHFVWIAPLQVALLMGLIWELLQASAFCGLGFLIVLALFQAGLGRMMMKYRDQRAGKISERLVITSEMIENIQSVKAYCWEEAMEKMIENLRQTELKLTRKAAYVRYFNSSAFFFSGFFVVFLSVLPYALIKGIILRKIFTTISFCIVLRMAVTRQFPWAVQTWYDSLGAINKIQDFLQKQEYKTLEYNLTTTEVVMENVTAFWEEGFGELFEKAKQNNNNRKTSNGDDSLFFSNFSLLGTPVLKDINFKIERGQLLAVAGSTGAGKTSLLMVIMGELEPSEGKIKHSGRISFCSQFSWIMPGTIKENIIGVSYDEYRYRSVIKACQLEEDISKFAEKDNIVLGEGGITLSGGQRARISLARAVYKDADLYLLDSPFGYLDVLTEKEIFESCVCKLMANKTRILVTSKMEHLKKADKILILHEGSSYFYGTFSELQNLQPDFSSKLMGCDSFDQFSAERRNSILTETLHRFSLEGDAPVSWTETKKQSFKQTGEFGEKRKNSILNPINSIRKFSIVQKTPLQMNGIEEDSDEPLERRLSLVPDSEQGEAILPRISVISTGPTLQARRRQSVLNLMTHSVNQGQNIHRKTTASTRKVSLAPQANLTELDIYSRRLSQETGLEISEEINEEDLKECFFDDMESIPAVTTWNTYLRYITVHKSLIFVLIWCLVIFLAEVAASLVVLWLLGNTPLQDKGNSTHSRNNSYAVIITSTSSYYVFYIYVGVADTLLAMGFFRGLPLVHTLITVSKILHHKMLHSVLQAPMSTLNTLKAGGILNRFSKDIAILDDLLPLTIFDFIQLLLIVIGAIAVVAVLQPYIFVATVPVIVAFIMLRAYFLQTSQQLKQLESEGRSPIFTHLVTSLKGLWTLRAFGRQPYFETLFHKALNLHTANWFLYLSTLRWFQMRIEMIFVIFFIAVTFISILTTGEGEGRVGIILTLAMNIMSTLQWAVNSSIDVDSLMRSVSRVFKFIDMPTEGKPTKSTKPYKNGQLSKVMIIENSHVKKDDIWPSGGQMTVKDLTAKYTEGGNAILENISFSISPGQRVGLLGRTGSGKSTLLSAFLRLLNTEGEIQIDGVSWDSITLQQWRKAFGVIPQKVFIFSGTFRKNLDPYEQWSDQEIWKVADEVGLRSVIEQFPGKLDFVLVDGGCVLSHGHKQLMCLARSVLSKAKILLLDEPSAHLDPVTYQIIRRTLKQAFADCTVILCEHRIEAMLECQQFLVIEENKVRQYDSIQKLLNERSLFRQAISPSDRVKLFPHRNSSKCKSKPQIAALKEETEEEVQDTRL

Structure (SMILES)	pEC50	Max. Activity
[2H]C1([2H])C2(CC2)C([2H])([2H])C1([2H])N1C(=O)c2cccc(c2)S(=O)(=O)Nc2nc(cc(-c3c(C)cccc3C)n2)OC[C@H]1CC(C)C [Compound Ib, (11R)-6-(2,6-Dimethylphenyl)-11-isobutyl-2,2-dioxo-12-(4,4,5,6,6-pentadeuteriospiro[2.3]hexan-5-yl)-9-oxa-2-thia-3,5,12,19-tetrazatricyclo[12.3.1.14,8]nonadeca-1(18),4,6,8(19),14,16-hexaen-13-one]	> 6.00	+++ (+++ is >60%)
[2H]C1(N2C(=O)c3cccc(c3)S(=O)(=O)Nc3nc(cc(-c4c(C)cccc4C)n3)OC[C@H]2CC(C)C)CC2(CC2)C1 [Compound Ic, (11R)-12-(5-Deuteriospiro[2.3]hexan-5-yl)-6-(2,6-dimethylphenyl)-11-isobutyl-2,2-dioxo-9-oxa-2-thia-3,5,12,19-tetrazatricyclo[12.3.1.14,8]nonadeca-1(18),4,6,8(19),14,16-hexaen-13-one]	> 6.00	+++ (+++ is >60%)

Second part, the molecule after the results:

pEC50	Max. Activity	Structure (SMILES)
> 6.00	+++ (+++ is >60%)	[2H]C1([2H])C([2H])([2H])C12CC(N1C(=O)c3cccc(c3)S(=O)(=O)Nc3nc(cc(-c4c(C)cccc4C)n3)OC[C@H]1CC(C)C)C2 [Compound Ia, (11R)-6-(2,6-Dimethylphenyl)-11-(2-methylpropyl)-12-[(1,1,2,2-tetradeutero)spiro[2.3]hexan-5-yl]-9-oxa-2λ^6-thia-3,5,12,19-tetraazatricyclo[12.3.1.14,8]nonadeca-1(17),4(19),5,7,14(18),15-hexaene-2,2,13-trione]
> 6.00	+++ (+++ is >60%)	[2H]C([2H])([2H])c1cccc(C([2H])([2H])[2H])c1-c1cc2nc(n1)NS(=O)(=O)c1cccc(c1)C(=O)N(C1CC3(CC3)C1)[C@H](CC(C)C)CO2 [Compound Id, (11R)-6-[2,6-di(trideutero)methylphenyl]-11-(2-methylpropyl)-12-{spiro[2.3]hexan-5-yl}-9-oxa-2λ^6-thia-3,5,12,19-tetraazatricyclo[12.3.1.14,8]nonadeca-1(17),4(19),5,7,14(18),15-hexaene-2,2,13-trione]
> 6.00	+++ (+++ is >60%)	Cc1cccc(C)c1-c1cc2nc(n1)NS(=O)(=O)c1cccc(c1)C(=O)N(C1CC3(CC3)C1)[C@H](CC(C)C)CO2 [Compound I, (11R)-6-(2,6-dimethylphenyl)-11-(2-methylpropyl)-12-{spiro[2.3]hexan-5-yl}-9-oxa-2λ^6-thia-3,5,12,19-tetraazatricyclo[12.3.1.14,8]nonadeca-1(17),4(19),5,7,14(18),15-hexaene-2,2,13-trione]
